Measurements taken from patent US20060134197A1, “Method of reducing unpleasant taste and/or unpleasant odor” (priority 2002, published 2006).

Columns and labels:
[1] = Inhibiting the production of hydrogen sulfide from L-cysteine due to heat-decomposition; settings: 2.5 g L-cysteine hydrochloride and 5 g saccharide in 50 ml; 80° C. for 15 minutes; 100 minus relative value, control defined as 100
Description: Two and half grams of precisely weighted L-cysteine hydrochloride (special reagent grade) and on a dry solid basis 5 g of a precisely measured saccharide sample; i.e. hydrous crystalline α,α-trehalose (reagent grade, purity 99.0% or more, commercialized by Hayashibara Biochemical Laboratories, Inc., Okayama, Japan), α-maltosyl α,α-trehalose prepared in the following Example 5 (purity 98.1%), or a reagent grade maltotetraose (purity 97.0% or more, commercialized by Hayashibara Biochemical Laboratories, Inc., Okayama, Japan); were placed in a 50-ml volume measuring flask and dissolved in deionized water to give a final volume of 50 ml. As a control, 2.5 g of precisely measured L-cysteine hydrochloride (special reagent grade) was dissolved in deionized water to give a final volume of 50 ml. Five ml of each sample was place into a 20-ml volume vial, sealed with a butyl gum cap, and kept at 80° C. for 15 minutes in an incubator. Hydrogen sulfide contained in 10 ml of the resulting headspace gas was measured by “GASTECH No. 4 LT”, a hydrogen sulfide detector commercialized by GL Science Corporation, under an aspiration time of one minute. The resulting value of the production of hydrogen sulfide of each test sample was compared with the value of control defined as 100 to calculate the relative value of the production of hydrogen sulfide. And then, the relative rate of inhibiting the production of hydrogen sulfide was calculated by 100 minus the relative value.

[2] = Inhibiting the production of hydrogen sulfide from chicken egg due to heat-decomposition; settings: 10 g egg solution and 5 g saccharide in 50 ml, pH 7.0; 80° C. for 60 minutes; 100 minus relative value, control defined as 100
Description: Ten grams of an egg solution prepared by mixing a commercialized chicken egg with an equal weight of deionized water, and on a dry solid basis 5 g of a precisely measured saccharide sample; i.e. hydrous crystalline α,α-trehalose (food grade, purity 97.0% or more, commercialized by Hayashibara Biochemical Laboratories, Inc., Okayama, Japan), sucrose (a commercialized granulated sugar), a syrup containing saccharide derivatives of α,α-trehalose prepared in the following Example 1, or a syrup containing saccharide derivatives of α,α-trehalose prepared in the following Example 6 (hereinafter, it is called as “hydrogenated syrup containing saccharide derivatives containing α,α-trehalose”); were placed in a 50-ml volume measuring flask, and admixed with 5 ml of 500 mM phosphate buffer (pH 7.0) and deionized water to give a final volume of 50 ml. As a control, 10 g of an egg solution was admixed with deionized water to give a final volume of 50 ml. Five milliliters of each of the samples was placed into a 20-ml volume vial, sealed with a butyl gum cap, and kept at 80° C. for 60 minutes in an incubator. Hydrogen sulfide contained in 10 ml of the resulting headspace gas was measured by “[…] […] And then, the relative rate of inhibiting the production of hydrogen sulfide was calculated by 100 minus the relative value.

[3] = Inhibiting the production of aldehydes from heated minced mackerel (headspace GC); settings: minced mackerel with 5% saccharide solution; for Relative rate of inhibiting the production of acetaldehyde / Relative rate of inhibiting the production of butanal / Relative rate of inhibiting the production of decanal / Relative rate of inhibiting the production of heptanal / Relative rate of inhibiting the production of hexanal / Relative rate of inhibiting the production of nonanal / Relative rate of inhibiting the production of octanal / Relative rate of inhibiting the production of pentanal / Relative rate of inhibiting the production of propanal: headspace gas; for Relative rate of inhibiting the production of total aldehydes: sum of nine aldehydes
Protocol: Five grams of minced mackerel, prepared by mincing commercialized mackerel without head part, internal organs and bone with a mincer to homogeneity, was placed in a 20-ml vial, and admixed with 5 ml of an aqueous solution containing on a dry solid basis 5% of “TREHA®”, a food grade hydrous α,α-trehalose commercialized by Hayashibara Biochemical laboratories, Inc., Okayama, Japan (purity 99.0% or more), sucrose (a commercialized granulated sugar), or a syrupy saccharide mixture containing saccharide derivatives of α,α-trehalose prepared in Example 1. The resulting vials were sealed with a butyl gum cap to prepare test samples. As a control, a vial containing 5 g of the minced mackerel and 5 ml of deionized water was sealed with a butyl gum cap for a control sample. These samples were heated in boiled water for 15 minutes, cooled in running water, and heated at 80° C. for five minutes. The resulting headspace gas was taken from each of the vials and allowed to measure the contents of amines, hydrogen sulfide and aldehydes.
Measurement of the content of aldehydes was carried out by subjecting 2 ml of the headspace gas to analysis by GC-14B gas chromatography, a hydrogen flame ionizing detector commercialized by Shimazu co., Ltd., Kyoto, Japan, with flowing helium gas as a carrier gas in 1 ml/minute, and using TC-FFAP capillary column, 30min length and 0.52 mm in internal diameter (df=1 μm, sprit rate 1/30), commercialized by GL Science Company, with an increasing column temperature from 40° C. to 250° C. at a rate of 5° C./minute.
The values of the production of amines, hydrogen sulfide and aldehydes of each test sample were compared with the value of control defined as 100 to calculate the relative values thereof. And then, the relative rates of inhibiting the production of amines, hydrogen sulfide and aldehydes were respectively calculated by 100 minus each of the relative values.

[4] = Separately carried panel test of smell of cocoa samples; settings: all of nine panels

SMILES | Relative rate of inhibiting the production of hydrogen sulfide [1] | Relative rate of inhibiting the production of hydrogen sulfide [2] | Relative rate of inhibiting the production of acetaldehyde [3] | Relative rate of inhibiting the production of butanal [3] | Relative rate of inhibiting the production of decanal [3] | Relative rate of inhibiting the production of heptanal [3] | Relative rate of inhibiting the production of hexanal [3] | Relative rate of inhibiting the production of nonanal [3] | Relative rate of inhibiting the production of octanal [3] | Relative rate of inhibiting the production of pentanal [3] | Relative rate of inhibiting the production of propanal [3] | Relative rate of inhibiting the production of total aldehydes [3] | Smell of cocoa sample judged by panels [4]
OC[C@H]1O[C@H](O[C@H]2O[C@H](CO)[C@@H](O)[C@H](O)[C@H]2O)[C@H](O)[C@@H](O)[C@@H]1O [α,α-Trehalose, α,α-trehalose] | 52 | 30 | 73 | 100 | 76 | 88 | 93 | 100 | 100 | 83 | 98 | 80 | favorite smell
OC[C@H]1O[C@@](CO)(O[C@H]2O[C@H](CO)[C@@H](O)[C@H](O)[C@H]2O)[C@@H](O)[C@@H]1O [Sucrose, sucrose] | – | 14 | 13 | −13 | 57 | 54 | 33 | −54 | 43 | −15 | 32 | 20 | –
